Laboratory results taken from article PMC10458893, “Design of Protegrin-1 Analogs with Improved Antibacterial Selectivity” (Pharmaceutics, 2023).
In brackets after ≈: the same amount, converted by molar mass. Positions of bridges follow the written chain, without caps; N, C: chain ends. Residues, ends and D or L forms follow the SMILES beside them.

Legend:
P. aeruginosa ATCC 27853 = assay type: cell-based, Pseudomonas aeruginosa; details: ATCC 27853, 24 h
Protocol: (§1) The antimicrobial activity of the peptides was determined using two-fold serial dilutions in sterile 96-well flat-bottom polystyrene microplates (Eppendorf, Hamburg, Germany) (Cat. No. 0030730011), as previously described. The following strains of bacteria were used: E. coli ATCC 25922, E. coli ML35p (ATCC collection), E. coli BW 25113 (Keio collection), Pseudomonas aeruginosa PAO1 (ATCC collection), P. aeruginosa ATCC 27853, Klebsiella pneumoniae ATCC 700603, Staphylococcus aureus 209P (ATCC collection), S. aureus ATCC 29213, and Micrococcus luteus B-1314 (VKM collection). Acinetobacter baumannii (strain XDR CI 2675) was provided by the I.M. Sechenov First Moscow State Medical University hospital. After a 24 h incubation period, the metabolic activity of the bacteria was assessed by adding 20 µL of a redox indicator, resazurin (Sigma-Aldrich, St. Louis, MO, USA), at a concentration of 0.1 mg/mL, to the wells. The plate was then incubated for a further two hours. The minimum inhibitory concentration (MIC) was determined as the lowest concentration of the peptide at which no color change in the resazurin indicator was observed. The results were presented as median values, which were determined based on at least three independent experiments carried out in triplicate.

P. aeruginosa PAO1 = assay type: cell-based, Pseudomonas aeruginosa; details: PAO1, 24 h
Protocol: as §1

[1] = test system: human keratinocyte cell line (HaCaT); assay: Cytotoxicity MTT assay; assay type: cell-based
Protocol: In order to evaluate the cytotoxicity of the peptides against a human keratinocyte cell line (HaCaT, Cat. No. 300493) (Cell Lines Service, Köln, Germany), the colorimetric 3-(4,5-dimethylthiazol-2-yl)-2,5-diphenyltetrazolium bromide (MTT) dye reduction assay was performed, as described in a previous publication. Wells containing no peptide were used as a 100% survival control. Each peptide was tested in two separate experiments to ensure the reliability of the results.

M. luteus B-1314 = assay type: cell-based, Micrococcus luteus; details: B-1314, 24 h
Protocol: as §1

[2] = test system: K. pneumoniae ATCC 700603; assay type: cell-based, Klebsiella pneumoniae; details: ATCC 700603, 24 h
Protocol: as §1

[3] = test system: freshly isolated human erythrocytes (hRBCs); assay: Hemolysis assay (hemoglobin release); assay type: cell-based
Excerpt: To assess the hemolytic activity of the compounds, freshly isolated human erythrocytes (hRBCs) were used according to the methodology described in a previous study. Melittin was used as a positive peptide control that induces significant hemolysis. Isotonic phosphate buffer (PBS) served as a negative control, while 0.1% Triton X-100 solution was used as a control for complete hemolysis.

E. coli ATCC 25922 = assay type: cell-based; details: ATCC 25922, 24 h
Protocol: as §1

S. aureus 209P = assay type: cell-based, Staphylococcus aureus; details: 24 h
Protocol: as §1

S. aureus ATCC 29213 = assay type: cell-based, Staphylococcus aureus; details: ATCC 29213, 24 h
Protocol: as §1

[4] = test system: Acinetobacter baumannii (strain XDR CI 2675); assay type: cell-based; details: strain XDR CI 2675; two-fold serial dilutions, 24 h incubation, resazurin read-out; median of at least three independent experiments in triplicate
Protocol: as §1

E. coli BW 25113 = assay type: cell-based; details: two-fold serial dilutions, 24 h incubation, resazurin read-out; median of at least three independent experiments in triplicate
Protocol: as §1

E. coli ML35p = assay type: cell-based; details: two-fold serial dilutions, 24 h incubation, resazurin read-out; median of at least three independent experiments in triplicate
Protocol: as §1

all the test strains = assay type: cell-based; details: geometric mean over the 10 test strains
Protocol: as §1

SMILES	MIC, P. aeruginosa ATCC 27853 (P. aeruginosa ATCC 27853)	MIC, P. aeruginosa PAO1 (P. aeruginosa PAO1)	Cell Viability, % (128 μM) ([1]; 18 h, 128)	MIC, M. luteus B-1314 (M. luteus B-1314)	MIC, K. pneumoniae ATCC 700603 [2]	Hemolytic activity, % (64 μM) ([3]; red cells of human, 64)	MIC, E. coli ATCC 25922 (E. coli ATCC 25922)	MIC, S. aureus 209P (S. aureus 209P)	MIC, S. aureus ATCC 29213 (S. aureus ATCC 29213)	Cell Viability, % (128 μM) ([1]; 128 μM peptide, HaCaT, MTT assay, 18 h incubation (legend; text says 24 h), mean ± SD of two independent experiments)	Hemolytic activity, % (64 μM) ([3]; 64 μM peptide, 1.5 h incubation, hemoglobin release, fresh hRBCs, 0.1% Triton X-100 = complete hemolysis, mean ± SD of two independent experiments)	MIC, A. baumannii [4]	MIC, E. coli BW 25113 (E. coli BW 25113)	MIC, E. coli ML35p (E. coli ML35p)	MIC (GM), geometric mean of the peptide's MICs against all the test strains (all the test strains)
CC(C)C[C@H](NC(=O)CNC(=O)CNC(=O)[C@@H](N)CCCNC(=N)N)C(=O)N[C@H]1CSSC[C@@H](C(=O)N[C@H](C(=O)NCC(=O)N[C@@H](CCCNC(=N)N)C(N)=O)C(C)C)NC(=O)[C@H](C(C)C)NC(=O)[C@@H]2CSSC[C@H](NC(=O)[C@H](Cc3ccc(O)cc3)NC1=O)C(=O)N[C@@H](CCCNC(=N)N)C(=O)NCC(=O)N[C@@H](CCCNC(=N)N)C(=O)N[C@@H](Cc1ccccc1)C(=O)N2 [Iseganan, reference compound] (H-RGGLCYCRGRFCVCVGR-NH2; disulfide 5-14, 7-12)	4 µM (≈ 7.6 µg/mL)	8 µM (≈ 15.2 µg/mL)	19.5 (±7.18) %	0.5 µM (≈ 0.95 µg/mL)	4 µM (≈ 7.6 µg/mL)	99.6 (±0.54) %	0.5 µM (≈ 0.95 µg/mL)	2 µM (≈ 3.8 µg/mL)	4 µM (≈ 7.6 µg/mL)						
CC[C@H](C)[C@H](NC(=O)CN)C(=O)NCC(=O)N[C@@H](C)C(=O)N[C@H](C(=O)N[C@@H](CC(C)C)C(=O)N[C@@H](CCCCN)C(=O)N[C@H](C(=O)N[C@@H](CC(C)C)C(=O)N[C@H](C(=O)N[C@H](C(=O)NCC(=O)N[C@@H](CC(C)C)C(=O)N1CCC[C@H]1C(=O)N[C@@H](C)C(=O)N[C@@H](CC(C)C)C(=O)N[C@H](C(=O)N[C@@H](CO)C(=O)N[C@@H](Cc1c[nH]c2ccccc12)C(=O)N[C@H](C(=O)N[C@@H](CCCCN)C(=O)N[C@@H](CCCNC(=N)N)C(=O)N[C@@H](CCCCN)C(=O)N[C@@H](CCCNC(=N)N)C(=O)N[C@@H](CCC(N)=O)C(=O)N[C@@H](CCC(N)=O)C(N)=O)[C@@H](C)CC)[C@@H](C)CC)[C@@H](C)O)[C@@H](C)O)C(C)C)C(C)C [Melittin, reference compound]										4.1 (± 4.07) %	96.0 (±7.12) %				
CC(C)C[C@H](NC(=O)[C@H](CCCNC(=N)N)NC(=O)CNC(=O)CNC(=O)[C@@H](N)CCCNC(=N)N)C(=O)N[C@H]1CSSC[C@@H](C(=O)N[C@H](C(=O)NCC(=O)N[C@@H](CCCNC(=N)N)C(=O)O)C(C)C)NC(=O)[C@H](C(C)C)NC(=O)[C@@H]2CSSC[C@H](NC(=O)[C@H](Cc3ccc(O)cc3)NC1=O)C(=O)N[C@@H](CCCNC(=N)N)C(=O)N[C@@H](CCCNC(=N)N)C(=O)N[C@@H](CCCNC(=N)N)C(=O)N[C@@H](Cc1ccccc1)C(=O)N2 [PG-1, Protegrin-1] (H-RGGRLCYCRRRFCVCVGR-OH; disulfide 6-15, 8-13; N-terminus and C-terminus assumed)	0.25 µM (≈ 0.539 µg/mL)	0.5 µM (≈ 1.08 µg/mL)	6.1 (±2.07) %	0.25 µM (≈ 0.539 µg/mL)	1 µM (≈ 2.16 µg/mL)	96.3 (±10.72) %	0.5 µM (≈ 1.08 µg/mL)	0.5 µM (≈ 1.08 µg/mL)	1 µM (≈ 2.16 µg/mL)			0.25 µM (≈ 0.539 µg/mL)	0.125 µM (≈ 0.27 µg/mL)	0.25 µM (≈ 0.539 µg/mL)	0.4 µM
